Values joined by “and” are separate entries in the source; they are usually repeats but may differ in a detail not shown here. Equal entries are not always repeated.
Test system: ECHCG
Experiment: In-water applied weed control, transplanted paddy rice, greenhouse (Example II);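 on Visual Weed Control (%) - 20 DAA ECHCG Obs: visual score 0 no injury to 100 complete kill versus untreated plants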
Format: in vivo, Echinochloa crusgalli (L.) Beauv.
Description: Evaluation of in-Water Applied Herbicidal Mixtures for Weed Control in Transplanted Paddy Rice
Weed seeds or nutlets of the desired test plant species were planted in puddled soil (mud) prepared by mixing a shredded, non-sterilized mineral soil (50.5 percent silt, 25.5 percent clay, and 24 percent sand, with a pH of about 7.6 and an organic matter content of about 2.9 percent) and water at a 1:1 volumetric ratio. The prepared mud was dispensed in 365 mL aliquots into 16-ounce (oz.) non-perforated plastic pots with a surface area of 86.59 square centimeters (cm^2) leaving a headspace of 3 centimeters (cm) in each pot. Mud was allowed to dry overnight prior to planting or transplanting. Rice seeds were planted in Sun Gro MetroMix® 306 planting mixture, which typically has a pH of 6.0 to 6.8 and an organic matter content of about 30 percent, in plastic plug trays. Seedlings at the second or third leaf stage of growth were transplanted into 840 mL of mud contained in 32-oz. non-perforated plastic pots with a surface area of 86.59 cm^2 4 days prior to herbicide application. The paddy was created by filling the headspace of the pots with 2.5 to 3 cm of water. When required to ensure good germination and healthy plants, a fungicide treatment and/or other chemical or physical treatment was applied. The plants were grown for 4-22 days in a greenhouse with an approximate 14 h photoperiod which was maintained at about 29′C during the day and 26° C. during the night. Nutrients were added as Osmocote® (19:6:12, N:P:K+ minor nutrients) at 2 g per 16-oz. pot and 4 g per 32-oz. pot. Water was added on a regular basis to maintain the paddy flood, and supplemental lighting was provided with overhead metal halide 1000-Watt lamps as necessary. The plants were employed for testing when they reached the first through fourth true leaf stage.
Treatments consisted of the acid or esters of 4-amino-3-chloro-5-fluoro-6-(4-chloro-2-fluoro-3-methoxy-phenyl)pyridine-2-carboxylic acid (compound A) each formulated as an SC (suspension concentrate) and various herbicidal components alone and in combination. Forms of compound A were applied on an acid equivalent basis.
Other herbicidal components were applied on an active ingredient basis and included 4-hydroxyphenyl pyruvate dioxygenase (HPPD)-inhibiting herbicides mesotrione formulated as Callisto®, sulcotrione formulated as Mikado®, pyrazolynate formulated as Sunbird® 10% GR, and benzobicyclon formulated as Benzobicyclon 3.5% or technical material.
Treatment requirements for each compound or herbicidal component were calculated based upon the rates being tested, the concentration of active ingredient or acid equivalent in the formulation, an application volume of 2 mL per component per pot, and an application area of 86.59 cm^2 per pot.
For formulated compounds, a measured amount was placed in an individual 100 or 200 mL glass vial and was dissolved in a volume of 1.25% (v/v) Agri-Dex® crop oil concentrate to obtain application solutions.
For technical grade compounds, a weighed amount was placed in an individual 100 to 200 mL glass vial and was dissolved in a volume of acetone to obtain concentrated stock solutions. […] The concentrated stock solutions obtained were diluted with an equivalent volume of an aqueous mixture containing 2.5% (v/v) crop oil concentrate so that the final application solutions contained 1.25% (v/v) crop oil concentrate.
Applications were made by injecting with a pipetter appropriate amounts of the application solutions, individually and sequentially, into the aqueous layer of the paddy. Control plants were treated in the same manner with the solvent blank. Applications were made so that all treated plant material received the same concentrations of acetone and crop oil concentrate.
The treated plants and control plants were placed in a greenhouse as described above and water was added as needed to maintain a paddy flood. […]

## COc1c(Cl)ccc(-c2nc(C(=O)OCc3ccccc3)c(Cl)c(N)c2F)c1F [Compound A Benzyl Ester, benzyl ester of 4-amino-3-chloro-5-fluoro-6-(4-chloro-2-fluoro-3-methoxy-phenyl)pyridine-2-carboxylic acid]
8.75 gae/ha
  Visual Weed Control (%) - 22 DAA ECHCG Obs: 45%
17.5 gae/ha
  Visual Weed Control (%) - 22 DAA ECHCG Obs: 90%

## COc1c(Cl)ccc(-c2nc(C(=O)O)c(Cl)c(N)c2F)c1F [Compound A Acid, 4-amino-3-chloro-6-(4-chloro-2-fluoro-3-methoxyphenyl)-5-fluoropyridine-2-carboxylic acid]
8.75 gae/ha
  Visual Weed Control (%) - 21 DAA ECHCG Obs: 20%
17.5 gae/ha
  Visual Weed Control (%) - 20 DAA ECHCG Obs: 35% and 30%
  Visual Weed Control (%) - 21 DAA ECHCG Obs: 30%
35 gae/ha
  Visual Weed Control (%) - 20 DAA ECHCG Obs: 55%

— US8841233B2, “Herbicidal compositions comprising 4-amino-3-chloro-5-fluoro-6-(4-chloro-2-fluoro-3-methoxyphenyl) pyridine-2-carboxylic acid or a derivative thereof and 4-hydroxyphenyl-pyruvate dioxygenase (HPPD) inhibitors” (Dow Agrosciences LLC, priority 2012, dated 2014)
